Measured values published in US8012975B2, “Antitumoral analogs of ET-743” (Pharma Mar, S.A., priority 2000, dated 2011).
Like-named read-outs stand apart in the source and are kept apart here.

What was measured:
Molt 3 = test: Cytotoxic activity (M) panel, Acute lymphoblastic Molt 3; conditions: Homo sapiens, MOLT-3, read-out: CYTOTOXIC ACTIVITY (M) Molt 3, leukemias & lymphomas, ALL Acute lymphoblastic, line Molt 3
U-937 = test: Cytotoxic activity (M) panel, Lymphoma Histiocytic U-937; conditions: Homo sapiens, U-937, read-out: CYTOTOXIC ACTIVITY (M) U-937
Hut 78 = test: Cytotoxic activity (M) panel, Lymphoma Cutaneus T cell Hut 78; conditions: Homo sapiens, HuT78, read-out: CYTOTOXIC ACTIVITY (M) Hut 78, leukemias & lymphomas, Lymphoma Cutaneus T cell, line Hut 78
MC116 = test: Cytotoxic activity (M) panel, Lymphoma undifferentiated MC116; conditions: Homo sapiens, MC116, read-out: CYTOTOXIC ACTIVITY (M) MC116, leukemias & lymphomas, Lymphoma undifferentiated, line MC116
in vitro = conditions: African green monkey
P-388 [1] = test: Cytotoxic activity IC50, P-388; conditions: Mus musculus, P388, read-out: CYTOTOXIC ACTIVITIY IC50 (μM) P-388
A-549 [2] = test: Cytotoxic activity IC50, A-549; conditions: Homo sapiens, A549, read-out: CYTOTOXIC ACTIVITIY IC50 (μM) A-549, A-549
HT-29 [3] = test: Cytotoxic activity IC50, HT-29; conditions: Homo sapiens, HT-29, read-out: CYTOTOXIC ACTIVITIY IC50 (μM) HT-29, HT-29
MEL-28 [4] = test: Cytotoxic activity IC50, MEL-28; conditions: Homo sapiens, SK-MEL-28, read-out: CYTOTOXIC ACTIVITIY IC50 (μM) MEL-28, MEL-28
DU-145 [5] = test: Cytotoxic activity IC50, DU-145; conditions: Homo sapiens, DU-145, read-out: CYTOTOXIC ACTIVITIY IC50 (μM) DU-145, DU-145
HT-29 [6] = test: Cytotoxic activity (M) panel, Colon HT-29; conditions: Homo sapiens, HT-29, read-out: CYTOTOXIC ACTIVITY (M) HT-29
786-O = test: Cytotoxic activity (M) panel, Renal 786-O; conditions: Homo sapiens, 786-0, read-out: CYTOTOXIC ACTIVITY (M) 786-O
5637 = test: Cytotoxic activity (M) panel, Bladder 5637; conditions: read-out: CYTOTOXIC ACTIVITY (M) 5637
PC3 = test: Cytotoxic activity (M) panel, Prostate PC3; conditions: Homo sapiens, PC-3, read-out: CYTOTOXIC ACTIVITY (M) PC3
FADU = test: Cytotoxic activity (M) panel, Pharnynx FADU; conditions: Homo sapiens, read-out: CYTOTOXIC ACTIVITY (M) FADU
Hs746t = test: Cytotoxic activity (M) panel, Gastric Hs746t; conditions: Homo sapiens, read-out: CYTOTOXIC ACTIVITY (M) Hs746t
SK-HEP-1 = test: Cytotoxic activity (M) panel, Liver SK-HEP-1; conditions: Homo sapiens, SK-HEP1, read-out: CYTOTOXIC ACTIVITY (M) SK-HEP-1
PANC-1 = test: Cytotoxic activity (M) panel, Pancreas PANC-1; conditions: Homo sapiens, PANC-1, read-out: CYTOTOXIC ACTIVITY (M) PANC-1
MEL-28 [7] = test: Cytotoxic activity (M) panel, Melanoma Mel-28; conditions: Homo sapiens, SK-MEL-28, read-out: CYTOTOXIC ACTIVITY (M) Mel-28
CHSA = test: Cytotoxic activity (M) panel, Chondrosarcoma CHSA; conditions: read-out: CYTOTOXIC ACTIVITY (M) CHSA
OSA-FH = test: Cytotoxic activity (M) panel, Osteosarcoma OSA-FH; conditions: read-out: CYTOTOXIC ACTIVITY (M) OSA-FH
NCI-H187 = test: Cytotoxic activity (M) panel, SCL NCI-H187; conditions: Homo sapiens, NCI-H187, read-out: CYTOTOXIC ACTIVITY (M) NCI-H187
SK-OV-3 = test: Cytotoxic activity (M) panel, Ovary SK-OV-3; conditions: Homo sapiens, SK-OV-3, read-out: CYTOTOXIC ACTIVITY (M) SK-OV-3
LNCAP = test: Cytotoxic activity (M) panel, Prostate LNCAP; conditions: Homo sapiens, read-out: CYTOTOXIC ACTIVITY (M) LNCAP
Y-79 = test: Cytotoxic activity (M) panel, Retinoblastoma Y-79; conditions: Homo sapiens, Y79, read-out: CYTOTOXIC ACTIVITY (M) Y-79
P-388 [8] = system: P-388
A-549 [9] = system: A-549
HT-29 [10] = system: HT-29
MEL-28 [11] = system: MEL-28
DU-145 [12] = system: DU-145
MX-1 = test: Cytotoxic activity (M) panel, Breast MX-1; conditions: Homo sapiens, MX1, read-out: CYTOTOXIC ACTIVITY (M) MX-1

## COc1c(C)cc2c(c1O)[C@@H]1C3Cc4c(OC(C)=O)c(C)c5c(c4[C@H](CNC(=O)/C=C/c4ccccc4)N3[C@@H](O)[C@H](C2)N1C)OCO5 (stereo partly shown) [drawing 220]
Molt 3
  IC50: 5.66e-10 M
U-937
  IC50: 3.28e-11 M
Hut 78
  IC50: 4.62e-09 M
MC116
  IC50: 3.8e-09 M

## CCCCCC(=O)N[C@@H](C)C(=O)NC[C@H]1c2c(c(OC(C)=O)c(C)c3c2OCO3)CC2[C@H]3c4c(cc(C)c(OC)c4O)C[C@@H]([C@H](C#N)N21)N3C (stereo partly shown)
In vitro
  IC50: 1 nM
P-388 [1]
  IC50: 0.001 µM
A-549 [2]
  IC50: 0.001 µM
HT-29 [3]
  IC50: 0.001 µM
MEL-28 [4]
  IC50: 0.001 µM
DU-145 [5]
  IC50: 0.001 µM

## C=CCOc1c(C)c2c(c3c1CC1[C@H]4c5c(cc(C)c(OC)c5OCOC)C[C@@H]([C@H](C#N)N1[C@H]3COC(=O)CCc1ccccc1)N4C)OCO2 (stereo partly shown)
In vitro
  IC50: 700 nM
P-388 [1]
  IC50: 0.7 µM
A-549 [2]
  IC50: 0.7 µM
HT-29 [3]
  IC50: 0.7 µM
MEL-28 [4]
  IC50: 0.7 µM
DU-145 [5]
  IC50: 0.7 µM

## COCOc1c(OC)c(C)cc2c1[C@@H]1C3CC4=C(C(=O)C(OC)=C(C)C4=O)[C@H](CNC(C)=O)N3[C@@H](C#N)[C@H](C2)N1C (stereo partly shown)
In vitro
  IC50: 220 nM
P-388 [1]
  IC50: 0.22 µM
A-549 [2]
  IC50: 0.22 µM
HT-29 [3]
  IC50: 0.22 µM
MEL-28 [4]
  IC50: 0.22 µM

## COc1c(C)cc2c(c1O)[C@@H]1C3Cc4c(OC(C)=O)c(C)c5c(c4[C@H](CNC(=O)[C@H](C)NC(=O)CCc4ccccc4)N3[C@@H](O)[C@H](C2)N1C)OCO5 (stereo partly shown) [drawing 215]
HT-29 [6]
  IC50: 7.43e-10 M
786-O
  IC50: 7.88e-10 M
5637
  IC50: 1.65e-10 M
PC3
  IC50: 8.13e-10 M
FADU
  IC50: 8.41e-10 M
Hs746t
  IC50: 9.35e-10 M
SK-HEP-1
  IC50: 1.4e-09 M
PANC-1
  IC50: 8.93e-10 M
MEL-28 [7]
  IC50: 1.08e-09 M
CHSA
  IC50: 1.08e-09 M
OSA-FH
  IC50: 8.84e-10 M

## C=CCOc1c(C)c2c(c3c1CC1[C@H]4c5c(cc(C)c(OC)c5O)C[C@@H]([C@H](C#N)N1[C@H]3CNC(=O)OCC(Cl)(Cl)Cl)N4C)OCO2 (stereo partly shown)
In vitro
  IC50: 14 nM
P-388 [1]
  IC50: 0.014 µM
A-549 [2]
  IC50: 0.014 µM
HT-29 [3]
  IC50: 0.014 µM
MEL-28 [4]
  IC50: 0.014 µM

## CCC(=O)NC[C@H]1c2c(c(OC(C)=O)c(C)c3c2OCO3)CC2[C@H]3c4c(cc(C)c(OC)c4O)C[C@@H]([C@H](O)N21)N3C (stereo partly shown) [drawing 227]
786-O
  IC50: 2.27e-09 M
5637
  IC50: 9.91e-10 M
NCI-H187
  IC50: 2.41e-11 M
SK-OV-3
  IC50: 2.9e-08 M
FADU
  IC50: 3.05e-08 M
Hs746t
  IC50: 1.36e-09 M
SK-HEP-1
  IC50: 1.17e-09 M
LNCAP
  IC50: 2.38e-08 M
PANC-1
  IC50: 1.37e-09 M
MEL-28 [7]
  IC50: 2.85e-09 M
Y-79
  IC50: 3.08e-10 M
CHSA
  IC50: 1.63e-09 M
OSA-FH
  IC50: 4.37e-09 M

## CCCC(=O)NC[C@H]1c2c(c(OC(C)=O)c(C)c3c2OCO3)CC2[C@H]3c4c(cc(C)c(OC)c4O)C[C@@H]([C@H](O)N21)N3C (stereo partly shown) [drawing 229]
Molt 3
  IC50: 1.62e-09 M
U-937
  IC50: 1.92e-09 M
Hut 78
  IC50: 7.33e-09 M
MC116
  IC50: 1.62e-08 M

## COc1c(C)cc2c(c1O)[C@@H]1C3Cc4c(OC(C)=O)c(C)c5c(c4[C@H](CNC(=O)/C=C/c4cccc(C(F)(F)F)c4)N3[C@@H](O)[C@H](C2)N1C)OCO5 (stereo partly shown) [drawing 218]
Molt 3
  IC50: 6.13e-10 M
U-937
  IC50: 1.77e-10 M
Hut 78
  IC50: 5.5e-11 M
MC116
  IC50: 2.15e-10 M

## CCCCCC(=O)NC[C@H]1c2c(c(OC(C)=O)c(C)c3c2OCO3)CC2[C@H]3c4c(cc(C)c(OC)c4O)C[C@@H]([C@H](C#N)N21)N3C (stereo partly shown) [drawing 120]
P-388 [8]
  IC50: 0.1 nM
A-549 [9]
  IC50: 0.1 nM
HT-29 [10]
  IC50: 0.1 nM
MEL-28 [11]
  IC50: 0.1 nM
DU-145 [12]
  IC50: 0.1 nM
In vitro
  IC50: 0.1 nM

## CCC(=O)N[C@@H](C)C(=O)NC[C@H]1c2c(c(OC(C)=O)c(C)c3c2OCO3)CC2[C@H]3c4c(cc(C)c(OC)c4O)C[C@@H]([C@H](O)N21)N3C (stereo partly shown) [drawing 228]
MX-1
  IC50: 1.92e-09 M
786-O
  IC50: 1.54e-08 M
5637
  IC50: 1.17e-09 M
NCI-H187
  IC50: 9.89e-11 M
FADU
  IC50: 4.38e-08 M
Hs746t
  IC50: 8.15e-09 M
SK-HEP-1
  IC50: 6.21e-09 M
LNCAP
  IC50: 1.77e-08 M
PANC-1
  IC50: 8.61e-09 M
MEL-28 [7]
  IC50: 1.42e-08 M
Y-79
  IC50: 7.45e-10 M
CHSA
  IC50: 2.91e-08 M
OSA-FH
  IC50: 1.15e-08 M

## COC1=C(C)C(=O)C2=C(C1=O)[C@H](CNC(=O)[C@H](C)NC(=O)C(F)(F)F)N1C(C2)[C@H]2c3c(cc(C)c(OC)c3O)C[C@@H]([C@@H]1C#N)N2C (stereo partly shown)
In vitro
  IC50: 100 nM
P-388 [1]
  IC50: 0.01 µM
A-549 [2]
  IC50: 0.01 µM
HT-29 [3]
  IC50: 0.01 µM
MEL-28 [4]
  IC50: 0.01 µM
DU-145 [5]
  IC50: 0.01 µM

## COCOc1c(OC)c(C)cc2c1[C@@H]1C3CC4=C(C(=O)C(O)=C(C)C4=O)[C@H](CNC(C)=O)N3[C@@H](C#N)[C@H](C2)N1C (stereo partly shown)
In vitro
  IC50: > 18100 nM

## COC1=C(C)C(=O)C2=C3C1=NCC3N1C(C2)[C@H]2c3c(cc(C)c(OC)c3O)C[C@@H]([C@@H]1C#N)N2C (stereo partly shown)
In vitro
  IC50: 2170 nM
P-388 [1]
  IC50: 2.17 µM
A-549 [2]
  IC50: 2.17 µM
HT-29 [3]
  IC50: 2.17 µM
MEL-28 [4]
  IC50: 2.17 µM

## CCCCCC(=O)N[C@@H](C)C(=O)NC[C@H]1c2c(c(OC(C)=O)c(C)c3c2OCO3)CC2[C@H]3c4c(cc(C)c(OC)c4O)C[C@@H]([C@H](O)N21)N3C (stereo partly shown)
In vitro
  IC50: 1 nM
P-388 [1]
  IC50: 0.001 µM
A-549 [2]
  IC50: 0.001 µM
HT-29 [3]
  IC50: 0.001 µM
MEL-28 [4]
  IC50: 0.001 µM
DU-145 [5]
  IC50: 0.001 µM

## C=CCOc1c(C)c2c(c3c1CC1[C@H]4c5c(cc(C)c(OC)c5OCOC)C[C@@H]([C@H](C#N)N1[C@H]3CN)N4C)OCO2 (stereo partly shown)
In vitro
  IC50: 1800 nM
A-549 [2]
  IC50: 1.8 µM
HT-29 [3]
  IC50: 1.8 µM
MEL-28 [4]
  IC50: 1.8 µM
DU-145 [5]
  IC50: 1.8 µM

## C=CCOc1c(C)c2c(c3c1CC1[C@H]4c5c(cc(C)c(OC)c5OCOC)C[C@@H]([C@H](C#N)N1[C@H]3CNC(=O)OCC(Cl)(Cl)Cl)N4C)OCO2 (stereo partly shown)
In vitro
  IC50: 130 nM
P-388 [1]
  IC50: 0.13 µM
A-549 [2]
  IC50: 0.13 µM
HT-29 [3]
  IC50: 0.13 µM
MEL-28 [4]
  IC50: 0.13 µM

## COc1c(C)cc2c(c1O)[C@@H]1C3Cc4c(OC(C)=O)c(C)c5c(c4[C@H](CNC(=O)[C@H](C)NC(=O)C(F)(F)F)N3[C@@H](O)[C@H](C2)N1C)OCO5 (stereo partly shown) [drawing 219]
Molt 3
  IC50: 2.8e-09 M
U-937
  IC50: 5.27e-11 M
Hut 78
  IC50: 2.57e-10 M
MC116
  IC50: 2.65e-10 M
